The record followed here is patent US6632829B2, “Sulfonamides and derivatives thereof that modulate the activity of endothelin” (Texas Biotechnology Corp., priority 1996, dated 2003).

One test deals with T1, human ETA receptors (Homo sapiens, UniProt P25101).
T1 construct: endogenous in cells; host or cells: TE 671 cells (ATCC HTB 139), membrane preparation
T1 sequence (P25101 21-427): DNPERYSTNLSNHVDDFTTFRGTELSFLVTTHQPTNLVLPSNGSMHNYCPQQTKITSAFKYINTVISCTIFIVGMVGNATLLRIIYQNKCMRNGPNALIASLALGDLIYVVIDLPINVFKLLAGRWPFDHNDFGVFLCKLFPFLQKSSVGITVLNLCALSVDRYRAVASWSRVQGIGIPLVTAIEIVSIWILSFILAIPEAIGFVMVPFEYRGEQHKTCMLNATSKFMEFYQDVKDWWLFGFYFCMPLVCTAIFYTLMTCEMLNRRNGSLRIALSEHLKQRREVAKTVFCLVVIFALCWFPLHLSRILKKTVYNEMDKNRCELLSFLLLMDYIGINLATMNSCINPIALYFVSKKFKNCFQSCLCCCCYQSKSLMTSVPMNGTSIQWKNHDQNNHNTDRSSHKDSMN
The test is described as follows: Endothelin binding inhibition, Binding Test #1: competition with 125I-ET-1 for ETA receptors on TE 671 cell membranes. As to the method:
(§1) Cells from multiple flasks were collected by scraping, pooled and centrifuged for 10 min at 190×g. The cells were resuspended in phosphate buffered saline (PBS) containing 10 mM EDTA using a Tenbroeck homogenizer. The suspension was centrifuged at 4° C. at 57,800×g for 15 min, the pellet was resuspended in 5 mL of buffer A (5 mM HEPES buffer, pH 7.4 containing aprotinin (100 KIU/mL)) and then frozen and thawed once. 5 mL of Buffer B (5 mM HEPES Buffer, pH 7.4 containing 10 mM MnCl2 and 0.001% deoxyribonuclease Type 1) was added, the suspension mixed by inversion and then incubated at 37° C. for 30 minutes. The mixture was centrifuged at 57,800×g as described above, the pellet washed twice with buffer A and then resuspended in buffer C (30 mM HEPES buffer, pH 7.4 containing aprotinin (100 KIU/mL) to give a final protein concentration of 2 mg/mL and stored at −70° C. until use.
The membrane suspension (50 μL), containing up to 8 μg of membrane protein, was added to each of (A), (B), or (C). […] Alternatively, the incubation was conducted at 24° C.
The supernatant, containing unbound radioactivity, was decanted and the pellet counted on a Genesys multiwell gamma counter. The degree of inhibition of binding (D) was calculated according to the following equation: [formula]
Each test was generally performed in triplicate.

The next test addresses T2, human ETB receptor (Homo sapiens, UniProt P24530).
T2 construct: expressed in transfected cells; host or cells: COS7 cells
T2 sequence (P24530 27-442): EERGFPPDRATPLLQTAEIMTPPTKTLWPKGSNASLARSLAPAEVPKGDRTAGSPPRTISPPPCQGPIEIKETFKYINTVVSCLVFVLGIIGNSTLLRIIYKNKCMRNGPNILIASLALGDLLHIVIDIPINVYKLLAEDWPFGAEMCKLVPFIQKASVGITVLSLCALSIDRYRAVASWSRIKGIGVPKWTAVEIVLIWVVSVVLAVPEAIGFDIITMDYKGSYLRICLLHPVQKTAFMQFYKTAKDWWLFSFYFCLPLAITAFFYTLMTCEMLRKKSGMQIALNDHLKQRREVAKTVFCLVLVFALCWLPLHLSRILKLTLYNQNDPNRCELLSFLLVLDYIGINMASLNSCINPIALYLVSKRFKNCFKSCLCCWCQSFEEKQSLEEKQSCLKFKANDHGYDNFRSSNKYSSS
The test is described as follows: Endothelin binding inhibition, Binding Test #2: competition with 125I-ET-1 for ETB receptors on transfected COS7 cell membranes. As to conditions: for inhibition at 100 µM: read-out: ETB % inhibition @ 100 μM, @ 100 μM, incubation at 24° C.
Description: Compounds that are potential endothelin antagonists are identified by testing their ability to compete with ^125I-labeled ET-1 for binding to human ETA receptors or ETB receptors present on isolated cell membranes. The effectiveness of the test compound as an antagonist or agonist of the biological tissue response of endothelin can also be assessed by measuring the effect on endothelin induced contraction of isolated rat thoracic aortic rings. The ability of the compounds to act as antagonists or agonists for ETB receptors can be assess by testing the ability of the compounds are to inhibit endothelin-1 induced prostacyclin release from cultured bovine aortic endothelial cells.
COS7 cells were transfected with DNA encoding the ETB receptor, The resulting cells, which express the human ETB receptor, were grown to confluence in T-150 flasks. Membrane was prepared as described above. The binding assay was performed as described above using the membrane preparation diluted with binding buffer to a concentration of 1 μg/50 μL.
as §1, with “Briefly, the COS7 cells, described above, that had been transfected with DNA encoding the ETB receptor and express the human ETB receptor on their surfaces were grown to confluence in T-175 flasks. Cells” for “Cells”, “C.” for “C. at”, “once. Five” for “once. 5”, “2 mg/mL.” for “2 mg/mL and stored at −70° C. until use.”
The binding assay was performed as described above using the membrane preparation diluted to give 1 μg/50 μL of binding buffer.

The mark [1] stands for this setting: incubation at 24° C. (values marked †).
Where [2] appears, read: incubation at 4° C. (values without †).

What is called IC50 is the midpoint of a concentration-inhibition curve. Read a high IC50 as weaker potency. Regarding `Cc1noc(NS(=O)(=O)c2c(-c3ccccc3C#N)sc3ccccc23)c1Cl` [N-(4-chloro-3-methyl-5-isoxazolyl)-2-[2-(cyano)phenyl]benzo[b]thiophene-3-sulfonamide], the 50% inhibitory concentration (IC50) on human ETA receptors (setting [1]) amounted to 6330 nM; on human ETB receptor (setting [1]) it was 8820 nM.
In the same order, the values of `COc1ccc(OC(=O)c2sccc2S(=O)(=O)Nc2onc(C)c2Br)cc1` [N-(4-bromo-3-methyl-5-isoxazolyl)-2-[(4-methoxylphenoxy)carbonyl]thiophene-3-sulfonamide] are 1730 nM and 111000 nM.
Broadly, the inhibition is the percentage by which the read-out fell short of the control. In turn, `Cc1noc(NS(=O)(=O)c2ccsc2C(=O)Oc2ccccc2)c1Cl` [N-(4-chloro-3-methyl-5-isoxazolyl)-2-(phenoxycarbonyl)thiophene-3-sulfonamide] registered an IC50 on human ETA receptors (setting [1]) of 4410 nM. The inhibition at 100 µM on human ETB receptor is 31%.
On to `CCc1oc2ccccc2c1S(=O)(=O)Nc1onc(C)c1Cl` [N-(4-chloro-3-methyl-5-isoxazolyl)-2-ethylbenzo[b]furan-3-sulfonamide], for which the IC50 at human ETA receptors (setting [1]) is 150 nM; on human ETB receptor (setting [1]), 22000 nM.
For `CCCc1ccc(-c2ccsc2S(=O)(=O)Nc2onc(C)c2Br)c(C)c1` [N-(4-bromo-3-methyl-5-isoxazolyl)-3-(2-methyl-4-propylphenyl)thiophene-2-sulfonamide] the same measures were 46.8 nM and 3630 nM.
For `Cc1noc(NS(=O)(=O)c2ccsc2CC2(c3ccc4c(c3)OCO4)OCCO2)c1Cl` [N-(4-chloro-3-methyl-5-isoxazolyl)-2-[β,β-(ethylenedioxy)-3,4-(methylenedioxy)phenethyl]thiophene-3-sulfonamide] the same measures were 128 nM and 2090 nM.
For `Cc1noc(NS(=O)(=O)c2ccsc2Cc2ccc3c(c2)OCO3)c1Br` [N-(4-bromo-3-methyl-5-isoxazolyl)-2-[(3,4-methylenedioxy)benzyl]thiophene-3-sulfonamide] the same measures were 270 nM and 7700 nM.
Turning to `Cc1noc(NS(=O)(=O)c2sccc2C(=O)Nc2ccccc2)c1C` [N-(3,4-dimethyl-5-isoxazolyl))-3-(phenylaminocarbonyl)thiophene-2-sulfonamide], the half-maximal inhibitory concentration (IC50) was 163 nM on human ETA receptors (setting [2]) and more than 100000 nM on human ETB receptor (setting [2]).
For the compound `Cc1noc(NS(=O)(=O)c2c(Cc3ccc(Cl)cc3)sc3ccccc23)c1C` [N-(3,4-dimethyl-5-isoxazolyl)-2-(4-chlorobenzyl)benzo[b]thiophene-3-sulfonamide], the half-maximal inhibitory concentration (IC50) on human ETA receptors (setting [1]) came to 210 nM; at human ETB receptor (setting [1]), 4700 nM.
For the compound `Cc1noc(NS(=O)(=O)c2ccsc2C(=O)NS(=O)(=O)c2cccc3c(N(C)C)cccc23)c1Br` [N-(4-bromo-3-methyl-5-isoxazolyl)-2-[(5-dimethylamino-1-naphthyl)sulfonylaminocarbonyl]thiophene-3-sulfonamide], the IC50 worked out at 970 nM on human ETA receptors (setting [1]) and 3900 nM on human ETB receptor (setting [1]).
For `Cc1cccc(OC(=O)c2sccc2S(=O)(=O)Nc2onc(C)c2Br)c1` [N-(4-bromo-3-methyl-5-isoxazolyl)-2-[(3-methylphenoxy)carbonyl]thiophene-3-sulfonamide] the same measures were 1200 nM and 111000 nM.
For `Cc1noc(NS(=O)(=O)c2ccsc2C(=O)N(C)c2ccccc2)c1Br` [N-(4-bromo-3-methyl-5-isoxazolyl)-2-[(methyl)phenylaminocarbonyl]thiophene-3-sulfonamide], the IC50 is 188 nM at human ETA receptors (setting [2]) and 16000 nM at human ETB receptor (setting [2]).
In the case of `COc1cccc(NCc2sccc2S(=O)(=O)Nc2onc(C)c2C)c1` [N-(3,4-dimethyl-5-isoxazolyl))-2-[(3-methoxyanilino)methyl]thiophene-3-sulfonamide], the IC50 on human ETA receptors (setting [2]) was 214 nM; on human ETA receptors (setting [1]), 933 nM; at human ETB receptor (setting [2]), 5340 nM; on human ETB receptor (setting [1]) it was 7700 nM.
Take `Cc1noc(NS(=O)(=O)c2sccc2-c2ccc(CCC(C)C)cc2)c1Br` [N-(4-bromo-3-methyl-5-isoxazolyl)-3-(4-iso-pentylphenyl)thiophene-2-sulfonamide]: the values for the 50% inhibitory concentration (IC50) on human ETA receptors (setting [1]) and on human ETB receptor (setting [1]) were 155 nM and 3310 nM, respectively.
For `COc1ccc(OC(=O)c2sccc2S(=O)(=O)Nc2onc(C)c2Cl)cc1` [N-(4-chloro-3-methyl-5-isoxazolyl)-2-[(4-methoxyphenoxy)carbonyl]thiophene-3-sulfonamide] the same measures were 23 nM and 15000 nM.
For `Cc1cc(C)c(OC(=O)c2sccc2S(=O)(=O)Nc2onc(C)c2Br)c(C)c1` [N-(4-bromo-3-methyl-5-isoxazolyl)-2-[(2,4,6-trimethylphenoxy)carbonyl]thiophene-3-sulfonamide] the same measures were 479 nM and 24500 nM.
For `Cc1ccc(CC(=O)c2sccc2S(=O)(=O)Nc2onc(C)c2Br)c(C)c1` [N-(4-bromo-3-methyl-5-isoxazolyl)-2-(2,4-dimethylphenylacetyl)thiophene-3-sulfonamide] the same measures were 0.8 nM and 3600 nM.
As to `Cc1noc(NS(=O)(=O)c2c(Cc3ccc(N(C)C)cc3)sc3ccccc23)c1Cl` [N-(4-chloro-3-methyl-5-isoxazolyl)-2-(4-dimethylaminobenzyl)benzo[b]thiophene-3-sulfonamide], the half-inhibitory concentration (IC50) stood at 14 nM at human ETA receptors (setting [2]), 41 nM at human ETA receptors (setting [1]), 477 nM on human ETB receptor (setting [2]) and 1300 nM at human ETB receptor (setting [1]).
In the case of `COc1ccccc1Cc1sc2ccccc2c1S(=O)(=O)Nc1onc(C)c1Br` [N-(4-bromo-3-methyl-5-isoxozolyl)-2-(2-methoxybenzyl)-benzo[b]thiophene-3-sulfonamide], the IC50 amounted to 190 nM at human ETA receptors (setting [1]) and 2200 nM on human ETB receptor (setting [1]).
With `Cc1noc(NS(=O)(=O)c2ccsc2C(=O)Oc2ccccc2)c1Br` [N-(4-bromo-3-methyl-5-isoxazolyl)-2-(phenoxycarbonyl)thiophene-3-sulfonamide], the half-maximal inhibitory concentration (IC50) on human ETA receptors (setting [1]) worked out at 2710 nM. In addition, the inhibition at 100 µM on human ETB receptor came to 20%.
Take `Cc1ccc(-c2ccsc2S(=O)(=O)Nc2onc(C)c2Br)c(C)c1` [N-(4-bromo-3-methyl-5-isoxazolyl)-3-(2,4-dimethylphenyl)thiophene-2-sulfonamide]: the half-maximal inhibitory concentration (IC50) on human ETA receptors (setting [1]) came out at 100 nM; on human ETB receptor (setting [1]), 60300 nM.
For `Cc1cc2c(cc1CC(=O)c1sccc1S(=O)(=O)Nc1onc(C)c1C)OCO2` [N-(3,4-dimethyl-5-isoxazolyl)-2-[2-methyl-4,5-(methylenedioxy)phenylacetyl]thiophene-3-sulfonamide] the same measures were 3.28 nM and 34300 nM.
